Source: PubChem BioAssay (NCI)
Where “and” joins values, the source holds several entries; their conditions need not be identical. Equal values may be shown once.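 In this assay, cells in 96-well plates receive the compound at five concentrations for 48 hours. Endpoints are linearly interpolated between the surrounding concentrations. Here, GI50 denotes the concentration required for 50% inhibition of growth. TGI denotes the concentration required for complete inhibition of growth.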

Experiments:
Test in all cases: NCI tumour cell line growth inhibition, 48 h
M14 melanoma = test system: M14 melanoma
OVCAR-5 ovarian = test system: OVCAR-5 ovarian
KM12 colon = test system: KM12 colon
ACHN renal = test system: ACHN renal
RPMI-8226 leukemia = test system: RPMI-8226 leukemia
UO-31 renal = test system: UO-31 renal
MCF7 breast = test system: MCF7 breast
SN12C renal = test system: SN12C renal
HCC-2998 colon = test system: HCC-2998 colon
OVCAR-4 ovarian = test system: OVCAR-4 ovarian

| SMILES | TGI (M14 melanoma) | TGI (OVCAR-5 ovarian) | TGI (KM12 colon) | TGI (ACHN renal) | TGI (RPMI-8226 leukemia) | TGI (UO-31 renal) | TGI (MCF7 breast) | TGI (SN12C renal) | TGI (HCC-2998 colon) | TGI (OVCAR-4 ovarian) | GI50 (M14 melanoma) | GI50 (OVCAR-5 ovarian) | GI50 (RPMI-8226 leukemia) | GI50 (OVCAR-4 ovarian) | GI50 (UO-31 renal) |
| --- | --- | --- | --- | --- | --- | --- | --- | --- | --- | --- | --- | --- | --- | --- | --- |
| O=C1NC2NC3NC(=O)NC3NC2N1 (centres undefined) | > 100 µM | > 100 µM | > 100 µM | > 100 µM | > 100 µM | > 100 µM | > 100 µM | > 100 µM |  |  |  |  |  |  |  |
| Cc1ccc(C(=O)CC2(O)C(=O)Nc3c(C)cc(Cl)cc32)cc1 (centres undefined) | > 100 µM | > 100 µM | > 100 µM | > 100 µM | > 100 µM | > 100 µM |  | > 100 µM | > 100 µM | > 100 µM |  |  |  |  |  |
| O=C(Cc1ccccc1)NN1C(=O)C(Cl)C1c1ccccc1Cl (centres undefined) | > 100 µM | > 100 µM | > 100 µM | > 100 µM | 51.1 µM | > 100 µM |  | > 100 µM | > 100 µM | > 100 µM |  |  |  |  |  |
| CCOc1ccccc1N=Nc1ccc2oc(=O)c(C(C)=O)cc2c1 | > 100 µM | > 100 µM | > 100 µM |  | > 100 µM | > 100 µM |  | > 100 µM | > 100 µM | > 100 µM |  |  |  |  |  |
| COc1ccccc1NC(=O)C1=C(C)NC(C)=C(C(=O)Nc2ccccc2OC)C1c1ccccc1[N+](=O)[O-] | 30 µM | 85.4 µM | 35 µM | 37.5 µM | 65.6 µM | 37.6 µM |  | 37.4 µM | 33 µM | 46.3 µM |  |  |  |  |  |
| COC(=O)C1CC2C=CC=CC(=O)C2(C)C1 (centres undefined) | 88.5 µM | > 100 µM | > 100 µM | > 100 µM | 59.5 µM | > 100 µM |  | > 100 µM |  | > 100 µM |  |  |  |  |  |
| COC(=O)c1ccc2c(c1)CC1(C2)Cc2cc3c(cc2C1)CCC3 | > 100 µM | > 100 µM |  | > 100 µM | > 100 µM | > 100 µM | > 100 µM |  | > 100 µM | > 100 µM |  |  |  |  |  |
| COc1ccc(N2C(=O)c3c(c4[nH]c5ccccc5c4c4ccc(C(C)(C)C)cc34)C2=O)cc1 | > 100 µM | > 100 µM | > 100 µM | > 100 µM |  | > 100 µM |  | > 100 µM | > 100 µM | 52.9 µM |  |  |  |  |  |
| O=Cc1c[nH]c2c(=O)[nH]cnc12 | > 100 µM |  | > 100 µM | > 100 µM | > 100 µM | > 100 µM |  | > 100 µM | > 100 µM |  |  |  |  |  |  |
| FC(F)(F)c1ccccc1C1SCC2=Nc3ccccc3CN21 (centres undefined) | 24.6 µM | 26.6 µM | 25.5 µM |  | > 100 µM | 24.1 µM | 26.5 µM | > 100 µM | 27.6 µM | 30.1 µM |  |  |  |  |  |
| O=C/C(=C1/C=Cc2cc([N+](=O)[O-])ccc2S1)c1ccccc1 | > 100 µM | > 100 µM |  | > 100 µM | > 100 µM | > 100 µM | > 100 µM | > 100 µM | > 100 µM | > 100 µM |  |  |  |  |  |
| CC1=CC2C(C=C1)S(=O)(=O)N1CC21c1ccccc1 (centres undefined) | > 100 µM | > 100 µM | > 100 µM | > 100 µM | > 100 µM | > 100 µM |  | > 100 µM | > 100 µM |  |  |  |  |  |  |
| COc1cc2ccc3c4ccccc4cnc3c2cc1OC | > 100 µM | > 100 µM | > 100 µM | > 100 µM | > 100 µM | > 100 µM |  | > 100 µM | > 100 µM | > 100 µM |  |  |  |  |  |
| CC(C)Oc1c(C2(c3ccccc3)SCCCS2)c(=O)c1=O | > 100 µM | > 100 µM | > 100 µM | > 100 µM |  | > 100 µM | > 100 µM | > 100 µM |  | > 100 µM |  |  |  |  |  |
| O=C1[C@@H]2C(c3ccc(Br)cc3)=NO[C@@H]2C(=O)N1c1ccc(Cc2ccc(N3C(=O)[C@H]4C(c5ccc(Br)cc5)=NO[C@H]4C3=O)cc2)cc1 | > 40 µM | > 40 µM | > 3.48 µM | > 40 µM | > 40 µM | > 40 µM |  | > 40 µM | > 3.48 µM | > 40 µM | > 40 µM | > 40 µM | > 40 µM | > 40 µM | > 40 µM |
| N#CC(NNC(=O)Cc1ccccc1)c1cccc(O)c1 (centres undefined) | > 100 µM | > 100 µM | > 100 µM | > 100 µM | > 100 µM | > 100 µM |  | > 100 µM |  | > 100 µM |  |  |  |  |  |
| CC1=CC(=O)CC2(C)CCC(C(C)CC(=O)CC(C)C)CC12OO (centres undefined) | 32.4 µM and 30.1 µM | 35.5 µM and 47.5 µM | 33.2 µM and 29.4 µM | 30.8 µM and 31.4 µM | 76.5 µM and 46.1 µM | 29.8 µM and 34.7 µM | 31.9 µM and 31.7 µM | 38 µM and 33.8 µM |  | 29.8 µM and > 100 µM |  |  |  |  |  |
| COc1ccc2[nH]c3c(c2c1)[C@H](c1ccccc1)C[C@@H]1C(=O)N(c2ccccc2)C(=O)[C@H]31 | > 100 µM | > 100 µM | 43.6 µM | 42.9 µM |  | 52.3 µM |  | 33.3 µM | > 100 µM | 31 µM |  |  |  |  |  |
| CC1(C)OC(=O)C(C)(C)C(=O)O1 | > 100 µM | > 100 µM | > 100 µM | > 100 µM |  | > 100 µM | > 100 µM | > 100 µM | > 100 µM | > 100 µM |  |  |  |  |  |
| Cc1ccc(S(=O)c2cccs2)cc1 (centres undefined) | > 100 µM | > 100 µM | > 100 µM | > 100 µM | > 100 µM | > 100 µM | > 100 µM | > 100 µM |  |  |  |  |  |  |  |
| CN(C)CCN(C)P12(Oc3ccccc3O1)Oc1c(Cl)c(Cl)c(Cl)c(Cl)c1O2 | > 100 µM | > 100 µM |  | > 100 µM | > 100 µM | > 100 µM | > 100 µM | > 100 µM | > 100 µM | > 100 µM |  |  |  |  |  |
| CC1(C)CCN2C(=O)C34CCCC3CC21S4 (centres undefined) | > 100 µM | > 100 µM | > 100 µM | > 100 µM | > 100 µM | > 100 µM | > 100 µM | > 100 µM |  | > 100 µM |  |  |  |  |  |
| COc1cc2c(c(OC)c1OC)-c1ccc(SC)c(=O)cc1[C@@H](NCc1ccc(F)cc1)CC2 |  | 75 µM and > 100 µM |  | 75 µM and 49.2 µM | 31.2 µM | 75 µM and 95.9 µM |  | 20.8 µM | 11.3 µM | > 100 µM |  |  |  |  | < 0.0075 µM |
